Data on four compounds can be found in ChEMBL document CHEMBL5579874, “Design, Synthesis, and Biological Evaluation of 2,4-Diaminopyrimidine Derivatives as Potent CDK7 Inhibitors” (ACS Med Chem Lett, 2024).

The subject of assay [1] is MV4-11. Put plainly: Antiproliferative activity against human MV4-11 cells assessed as inhibition of cell growth incubated for 72 hrs by CCK-8 assay. In kind it is functional, cell-based. The settings on record: MV4-11, 72 h. On the technique in general: Tetrazolium assays rely on reduction of a dye to a coloured formazan, in cell work by metabolically active cells.
For assay [2], the target named is Cyclin-dependent kinase 9 (Homo sapiens, UniProt P50750).
Description: Inhibition of CDK9 (unknown origin) using ULight 4EBP1 peptide as substrate incubated for 2 hrs by FRET assay
Assay [3] has as its target Cyclin-dependent kinase 7 (Homo sapiens, UniProt P50613). Put plainly: Inhibition of CDK7 (unknown origin) using ULight 4EBP1 peptide as substrate incubated for 2 hrs by FRET assay.
The target of assay [4] is Insulin-like growth factor 1 receptor (Homo sapiens, UniProt P08069). Put plainly: Inhibition of human IGF1R incubated for 1 hr by HTRF assay. In general terms: TR-FRET usually uses a lanthanide donor and a delayed reading to cut background.
Assay [5] concerns the target Cyclin-dependent kinase 2 (Homo sapiens, UniProt P24941). The assay can be described thus: Inhibition of CDK2 (unknown origin) using ULight 4EBP1 peptide as substrate incubated for 2 hrs by FRET assay.
The target in assay [6] is Cyclin-dependent kinase 4 (Homo sapiens, UniProt P11802). The assay can be described thus: Inhibition of CDK4 (unknown origin) using ULight 4EBP1 peptide as substrate incubated for 2 hrs by FRET assay.
Assay [7] addresses T1, Aurora kinase A (Homo sapiens, UniProt O14965).
T1 sequence (O14965 whole entry): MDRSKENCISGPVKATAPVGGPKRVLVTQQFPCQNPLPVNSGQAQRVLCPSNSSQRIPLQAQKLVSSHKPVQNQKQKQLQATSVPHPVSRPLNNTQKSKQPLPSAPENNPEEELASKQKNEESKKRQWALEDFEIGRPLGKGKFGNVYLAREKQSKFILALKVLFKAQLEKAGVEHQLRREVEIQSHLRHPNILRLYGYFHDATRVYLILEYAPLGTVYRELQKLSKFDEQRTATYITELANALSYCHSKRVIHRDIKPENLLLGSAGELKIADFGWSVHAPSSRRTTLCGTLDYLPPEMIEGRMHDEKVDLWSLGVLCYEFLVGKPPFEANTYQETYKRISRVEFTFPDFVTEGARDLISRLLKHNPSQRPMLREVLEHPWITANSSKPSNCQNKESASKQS
Put plainly: Inhibition of Aurora A (unknown origin).

In assay [8] the target is Cyclin-dependent kinase 3 (Homo sapiens, UniProt Q00526). The assay can be described thus: Inhibition of CDK3 (unknown origin) using ULight 4EBP1 peptide as substrate incubated for 2 hrs by FRET assay.
Assay [9] concerns the target Cyclin-dependent kinase 5 (Homo sapiens, UniProt Q00535). The assay can be described thus: Inhibition of CDK5 (unknown origin) using ULight 4EBP1 peptide as substrate incubated for 2 hrs by FRET assay.
Assay [10] has as its target Hepatocyte growth factor receptor (Homo sapiens, UniProt P08581). Put plainly: Inhibition of human MET incubated for 1 hr by HTRF assay.
The target of assay [11] is Epidermal growth factor receptor (Homo sapiens, UniProt P00533). The assay can be described thus: Inhibition of human EGFR incubated for 1 hr by HTRF assay.
Assay [12] deals with T2, Ephrin type-A receptor 1 (Homo sapiens, UniProt P21709).
T2 sequence (P21709 whole entry): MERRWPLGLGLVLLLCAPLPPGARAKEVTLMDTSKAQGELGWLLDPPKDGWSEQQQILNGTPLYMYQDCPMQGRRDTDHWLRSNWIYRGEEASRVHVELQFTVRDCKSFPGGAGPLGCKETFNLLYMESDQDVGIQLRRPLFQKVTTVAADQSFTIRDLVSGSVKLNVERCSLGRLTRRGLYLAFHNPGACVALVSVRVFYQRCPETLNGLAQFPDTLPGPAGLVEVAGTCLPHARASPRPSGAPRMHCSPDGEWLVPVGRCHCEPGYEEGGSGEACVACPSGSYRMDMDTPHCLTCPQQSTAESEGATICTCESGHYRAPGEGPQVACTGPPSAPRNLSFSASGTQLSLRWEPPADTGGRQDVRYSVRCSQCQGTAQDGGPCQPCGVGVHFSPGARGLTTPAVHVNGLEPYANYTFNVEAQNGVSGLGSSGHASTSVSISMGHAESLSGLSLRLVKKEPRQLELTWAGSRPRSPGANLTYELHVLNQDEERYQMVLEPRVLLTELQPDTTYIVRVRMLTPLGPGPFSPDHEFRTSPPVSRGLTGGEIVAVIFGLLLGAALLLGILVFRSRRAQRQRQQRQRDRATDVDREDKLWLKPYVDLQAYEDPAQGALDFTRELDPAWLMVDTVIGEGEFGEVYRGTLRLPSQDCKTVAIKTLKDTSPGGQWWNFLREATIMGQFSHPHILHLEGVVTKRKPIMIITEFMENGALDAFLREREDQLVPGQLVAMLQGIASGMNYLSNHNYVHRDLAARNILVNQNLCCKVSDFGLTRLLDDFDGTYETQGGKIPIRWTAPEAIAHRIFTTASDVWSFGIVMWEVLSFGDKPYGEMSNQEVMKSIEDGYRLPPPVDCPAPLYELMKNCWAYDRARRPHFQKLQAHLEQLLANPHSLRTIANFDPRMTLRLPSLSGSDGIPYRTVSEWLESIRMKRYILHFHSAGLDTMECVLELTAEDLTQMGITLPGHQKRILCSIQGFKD
The assay can be described thus: Inhibition of human EPHA1 incubated for 1 hr by HTRF assay.

The target in assay [13] is Tyrosine-protein kinase Blk (Homo sapiens, UniProt P51451). The assay can be described thus: Inhibition of human BLK incubated for 1 hr by HTRF assay.
Assay [14] concerns the target Tyrosine-protein kinase HCK (Homo sapiens, UniProt P08631). The assay can be described thus: Inhibition of human HCK incubated for 1 hr by HTRF assay.
Assay [15] deals with Tyrosine-protein kinase BTK (Homo sapiens, UniProt Q06187). Put plainly: Inhibition of human recombinant BTK incubated for 1 hr by HTRF assay.
Assay [16] concerns the target T3, Tyrosine-protein kinase Tec (Homo sapiens, UniProt P42680).
T3 sequence (P42680 whole entry): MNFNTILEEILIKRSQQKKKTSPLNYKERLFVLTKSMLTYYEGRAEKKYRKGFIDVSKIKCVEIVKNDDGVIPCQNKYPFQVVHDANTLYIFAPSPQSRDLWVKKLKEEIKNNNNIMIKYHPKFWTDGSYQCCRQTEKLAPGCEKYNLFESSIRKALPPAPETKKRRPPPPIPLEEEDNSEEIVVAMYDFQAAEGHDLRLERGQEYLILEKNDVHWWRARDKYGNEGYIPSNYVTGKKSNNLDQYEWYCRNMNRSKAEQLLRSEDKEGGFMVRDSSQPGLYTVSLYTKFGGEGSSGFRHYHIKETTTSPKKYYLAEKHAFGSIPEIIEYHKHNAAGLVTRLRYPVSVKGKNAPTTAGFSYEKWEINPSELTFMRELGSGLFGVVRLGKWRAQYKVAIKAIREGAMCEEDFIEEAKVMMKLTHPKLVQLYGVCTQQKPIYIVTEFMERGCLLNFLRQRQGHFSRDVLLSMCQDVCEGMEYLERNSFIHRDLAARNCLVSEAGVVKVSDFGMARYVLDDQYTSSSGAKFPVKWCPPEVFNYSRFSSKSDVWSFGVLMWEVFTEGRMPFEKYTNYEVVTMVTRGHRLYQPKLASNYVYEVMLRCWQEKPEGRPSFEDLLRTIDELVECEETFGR
The assay can be described thus: Inhibition of human TEC incubated for 1 hr by HTRF assay.

Assay [17] concerns the target Tyrosine-protein kinase Lyn (Homo sapiens, UniProt P07948). The assay can be described thus: Inhibition of human LYN incubated for 1 hr by HTRF assay.
For assay [18], the target named is Cyclin-dependent kinase 1 (Homo sapiens, UniProt P06493). The assay can be described thus: Inhibition of CDK1 (unknown origin) using ULight 4EBP1 peptide as substrate incubated for 2 hrs by FRET assay.
The target in assay [19] is Cyclin-dependent kinase 6 (Homo sapiens, UniProt Q00534). The assay can be described thus: Inhibition of CDK6 (unknown origin) using ULight 4EBP1 peptide as substrate incubated for 2 hrs by FRET assay.
Assay [20] concerns the target T4, Cytoplasmic tyrosine-protein kinase BMX (Homo sapiens, UniProt P51813).
T4 sequence (P51813 whole entry): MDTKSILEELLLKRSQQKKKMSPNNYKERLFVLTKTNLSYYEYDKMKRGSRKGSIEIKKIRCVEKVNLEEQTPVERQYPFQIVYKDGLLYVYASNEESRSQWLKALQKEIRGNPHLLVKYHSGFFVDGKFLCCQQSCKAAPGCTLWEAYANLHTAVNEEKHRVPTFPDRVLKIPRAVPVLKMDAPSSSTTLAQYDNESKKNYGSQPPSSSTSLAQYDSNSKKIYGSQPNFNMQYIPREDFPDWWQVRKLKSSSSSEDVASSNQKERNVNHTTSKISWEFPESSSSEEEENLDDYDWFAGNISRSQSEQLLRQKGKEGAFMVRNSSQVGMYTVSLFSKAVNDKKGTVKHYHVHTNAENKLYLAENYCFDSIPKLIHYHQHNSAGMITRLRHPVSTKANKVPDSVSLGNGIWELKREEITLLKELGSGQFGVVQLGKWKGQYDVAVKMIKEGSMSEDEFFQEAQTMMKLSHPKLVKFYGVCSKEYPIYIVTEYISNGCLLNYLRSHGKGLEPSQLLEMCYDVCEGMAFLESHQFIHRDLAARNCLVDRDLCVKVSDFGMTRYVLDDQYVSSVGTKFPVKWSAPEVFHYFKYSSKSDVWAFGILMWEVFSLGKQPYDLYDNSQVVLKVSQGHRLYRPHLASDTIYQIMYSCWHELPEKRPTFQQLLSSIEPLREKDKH
The assay can be described thus: Inhibition of human BMX incubated for 1 hr by HTRF assay.

The term IC50 denotes the concentration that inhibits the measured activity by half.

SMILES strings stand for the structures.

`Cn1ncc(-c2nc(N[C@H]3CC[C@H](N)CC3)ncc2Cl)c1CC1CC1` [BTX-A51]: the 50% inhibitory concentration (IC50) stood at 158 nM in assay [1], 18.6 nM in [2] and 272 nM in [3].
For the compound `CN(C)C/C=C/C(=O)Nc1ccc(C(=O)Nc2cccc(Nc3ncc(Cl)c(-c4c[nH]c5ccccc45)n3)c2)cc1`, the 50% inhibitory concentration (IC50) in assay [1] came out at 30.7 nM.
As for `CC(=O)N[C@H]1CC[C@H](c2ncc(Cl)c(Nc3ccccc3S(=O)(=O)C(C)C)n2)CC1`, the IC50 in [4] was determined as 2890 nM; in assay [5], 735 nM; in assay [6], 645 nM; in [7], 1320 nM; in assay [8], 370 nM; in assay [9], 3680 nM. For the same compound, the IC50 was > 10000 nM in [10]; > 10000 nM in assay [11]; 2480 nM in assay [12]; > 10000 nM in [13]; > 10000 nM in assay [14]; > 10000 nM in assay [15]. In addition, the IC50 in assay [16] was > 10000 nM; in assay [17], > 10000 nM; in assay [18], > 10000 nM; in assay [19], 1350 nM; in assay [20], > 10000 nM.
For `COC[C@@H](C)N[C@H]1CC[C@H](Nc2cc(-c3cccc(NCC4(C#N)CCOCC4)n3)c(Cl)cn2)CC1`, the midpoint of inhibition in assay [2], the IC50, lay at 3.57 nM.
